System: 496974-208-R-J2-PDC complex spheroids, growth % test/control
Assay: Anticancer human tumor 496974-208-R-J2-PDC patient-derived pancreatic carcinoma cell line growth inhibition [CLK]
Conditions: for IC50: curve of first compound; for viability, T/C: stronger effect = lower value; active = viability on the fitted dose curve at most 10% of control; inactive = the rest
Procedure, shortened: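 Multi-cell-type spheroids combined patient-derived tumor cells with HUVEC endothelial cells and human mesenchymal stem cells. Paired agents were dosed in half-log steps down from about clinical Cmax, or from 10 microM where Cmax was unknown.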
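Also: spheroids exposed to the drugs for 7 days before readout.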
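For viability, T/C in this document: 100% = DMSO vehicle control wells.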

NC(=O)C(=Cn1cnc(-c2cc(C(F)(F)F)cc(C(F)(F)F)c2)n1)c1cncnc1 + CN1CCN(c2cc(C(=O)Nc3cc4cc(-c5cnn(C)c5)ccc4cn3)ccn2)CC1
0.0804 µM: IC50 (second compound 0.0316 µM)
< 0.00949 µM: IC50 (second compound 0.316 µM) | IC50 (second compound 1 µM) | IC50 (second compound 3.16 µM) | IC50 (second compound 10 µM)
0.042 µM: IC50 (second compound 0.1 µM)
active: viability, T/C (second compound 0.1 µM, first compound 0.949 µM) 7.44% | viability, T/C (second compound 0.1 µM, first compound 3 µM) 2.92% | viability, T/C (second compound 0.316 µM, first compound 0.00949 µM) 2.46% | viability, T/C (second compound 0.316 µM, first compound 0.03 µM) 1.91% | viability, T/C (second compound 0.316 µM, first compound 0.0949 µM) 3.26% | viability, T/C (second compound 0.316 µM, first compound 0.3 µM) 0.41% | viability, T/C (second compound 0.316 µM, first compound 0.949 µM) 0.31% | viability, T/C (second compound 0.316 µM, first compound 3 µM) 0.19% | viability, T/C (second compound 1 µM, first compound 0.00949 µM) 0.39% | viability, T/C (second compound 1 µM, first compound 0.03 µM) 0.4% | viability, T/C (second compound 1 µM, first compound 0.0949 µM) 0.64% | viability, T/C (second compound 1 µM, first compound 0.3 µM) 0.44% | viability, T/C (second compound 1 µM, first compound 0.949 µM) 2.17% | viability, T/C (second compound 1 µM, first compound 3 µM) 0.11% | viability, T/C (second compound 3.16 µM, first compound 0.00949 µM) 0.34% | viability, T/C (second compound 3.16 µM, first compound 0.03 µM) 0.4% | viability, T/C (second compound 3.16 µM, first compound 0.0949 µM) 0.41% | viability, T/C (second compound 3.16 µM, first compound 0.3 µM) 0.37% | viability, T/C (second compound 3.16 µM, first compound 0.949 µM) 0.26% | viability, T/C (second compound 3.16 µM, first compound 3 µM) 0.13% | viability, T/C (second compound 10 µM, first compound 0.00949 µM) 0.25% | viability, T/C (second compound 10 µM, first compound 0.03 µM) 0.23% | viability, T/C (second compound 10 µM, first compound 0.0949 µM) 1.86% | viability, T/C (second compound 10 µM, first compound 0.3 µM) 0.31% | viability, T/C (second compound 10 µM, first compound 0.949 µM) 0.24% | viability, T/C (second compound 10 µM, first compound 3 µM) 0.69%
inactive: viability, T/C (second compound 0.0316 µM, first compound 0.00949 µM) 90.6% | viability, T/C (second compound 0.0316 µM, first compound 0.03 µM) 67.2% | viability, T/C (second compound 0.0316 µM, first compound 0.0949 µM) 52.1% | viability, T/C (second compound 0.0316 µM, first compound 0.3 µM) 21.3% | viability, T/C (second compound 0.0316 µM, first compound 0.949 µM) 16.9% | viability, T/C (second compound 0.0316 µM, first compound 3 µM) 11.8% | viability, T/C (second compound 0.1 µM, first compound 0.00949 µM) 61.6% | viability, T/C (second compound 0.1 µM, first compound 0.03 µM) 56.5% | viability, T/C (second compound 0.1 µM, first compound 0.0949 µM) 35.2% | viability, T/C (second compound 0.1 µM, first compound 0.3 µM) 12.4%

COC1C=CCC(C)C(C)S(=O)(=O)NC(=O)c2ccc3c(c2)N(CC2CCC21)CC1(CCCc2cc(Cl)ccc21)CO3 (centres undefined) + CN1CCN(c2cc(C(=O)Nc3cc4cc(-c5cnn(C)c5)ccc4cn3)ccn2)CC1
9.9 µM: IC50 (second compound 0.0316 µM)
6.73 µM: IC50 (second compound 0.1 µM)
inactive: viability, T/C (second compound 0.0316 µM, first compound 0.0316 µM) 93.4% | viability, T/C (second compound 0.0316 µM, first compound 0.1 µM) 87.3% | viability, T/C (second compound 0.0316 µM, first compound 0.316 µM) 86.7% | viability, T/C (second compound 0.0316 µM, first compound 1 µM) 76.2% | viability, T/C (second compound 0.0316 µM, first compound 3.16 µM) 76.1% | viability, T/C (second compound 0.0316 µM, first compound 10 µM) 48.3% | viability, T/C (second compound 0.1 µM, first compound 0.0316 µM) 79.9% | viability, T/C (second compound 0.1 µM, first compound 0.1 µM) 78.4% | viability, T/C (second compound 0.1 µM, first compound 0.316 µM) 75.4% | viability, T/C (second compound 0.1 µM, first compound 1 µM) 69.1% | viability, T/C (second compound 0.1 µM, first compound 3.16 µM) 66.3% | viability, T/C (second compound 0.1 µM, first compound 10 µM) 42%
active: viability, T/C (second compound 0.316 µM, first compound 0.0316 µM) 6.55% | viability, T/C (second compound 0.316 µM, first compound 0.1 µM) 6.86% | viability, T/C (second compound 0.316 µM, first compound 0.316 µM) 6.27% | viability, T/C (second compound 0.316 µM, first compound 1 µM) 5.01% | viability, T/C (second compound 0.316 µM, first compound 3.16 µM) 6.46% | viability, T/C (second compound 0.316 µM, first compound 10 µM) 9.02% | viability, T/C (second compound 1 µM, first compound 0.0316 µM) 0.46% | viability, T/C (second compound 1 µM, first compound 0.1 µM) 2.1% | viability, T/C (second compound 1 µM, first compound 0.316 µM) 1.64% | viability, T/C (second compound 1 µM, first compound 1 µM) 0.36% | viability, T/C (second compound 1 µM, first compound 3.16 µM) 0.6% | viability, T/C (second compound 1 µM, first compound 10 µM) 2.57% | viability, T/C (second compound 3.16 µM, first compound 0.0316 µM) 0.56% | viability, T/C (second compound 3.16 µM, first compound 0.1 µM) 1.19% | viability, T/C (second compound 3.16 µM, first compound 0.316 µM) 0.48% | viability, T/C (second compound 3.16 µM, first compound 1 µM) 0.35% | viability, T/C (second compound 3.16 µM, first compound 3.16 µM) 3.56% | viability, T/C (second compound 3.16 µM, first compound 10 µM) 1.06% | viability, T/C (second compound 10 µM, first compound 0.0316 µM) 1.5% | viability, T/C (second compound 10 µM, first compound 0.1 µM) 0.48% | viability, T/C (second compound 10 µM, first compound 0.316 µM) 0.41% | viability, T/C (second compound 10 µM, first compound 1 µM) 0.29% | viability, T/C (second compound 10 µM, first compound 3.16 µM) 3.22% | viability, T/C (second compound 10 µM, first compound 10 µM) 0.75%
< 0.0316 µM: IC50 (second compound 0.316 µM) | IC50 (second compound 1 µM) | IC50 (second compound 3.16 µM) | IC50 (second compound 10 µM)

Reference: PubChem BioAssay AID2060615 (Molecular Pharmacology Branch, DTP, NCI, 2025)
